This note sets out measurements from ChEMBL document CHEMBL4402507, “Tyrosinase inhibitory study of flavonolignans from the seeds of Silybum marianum (Milk thistle)” (Bioorg Med Chem, 2019).

Experiment [1] has as its target T1, Tyrosinase (Agaricus bisporus) (UniProt O42713).
T1 sequence (whole entry): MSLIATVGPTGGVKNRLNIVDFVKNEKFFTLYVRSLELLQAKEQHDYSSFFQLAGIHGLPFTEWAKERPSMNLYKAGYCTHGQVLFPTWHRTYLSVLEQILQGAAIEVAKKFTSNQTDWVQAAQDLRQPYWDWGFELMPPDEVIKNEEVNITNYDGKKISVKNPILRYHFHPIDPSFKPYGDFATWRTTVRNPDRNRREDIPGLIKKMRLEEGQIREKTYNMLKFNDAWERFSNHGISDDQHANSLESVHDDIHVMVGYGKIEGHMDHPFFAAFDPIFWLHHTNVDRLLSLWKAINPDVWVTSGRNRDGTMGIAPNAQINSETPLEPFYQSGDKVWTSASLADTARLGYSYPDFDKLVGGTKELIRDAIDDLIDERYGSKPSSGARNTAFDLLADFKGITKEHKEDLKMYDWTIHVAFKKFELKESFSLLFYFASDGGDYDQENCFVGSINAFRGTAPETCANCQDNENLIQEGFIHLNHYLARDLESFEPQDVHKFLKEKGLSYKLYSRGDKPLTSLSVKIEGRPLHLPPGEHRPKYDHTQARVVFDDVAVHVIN
The experiment in a line: Inhibition of monophenolase activity of mushroom tyrosinase assessed as reduction in steady state rate monophenolase activity for oxidation of L-tyrosine substrate at 0.5 to 16 uM by UV-Vis spectrophotometry.

The target of experiment [2] is T1, Tyrosinase (Agaricus bisporus).
Description: Inhibition of monophenolase activity of mushroom tyrosinase assessed as inhibition constant for enzyme-substrate-inhibitor complex by measuring reduction in dopachrome formation using L-Tyrosine substrate by UV-Vis spectrophotometry
Experiment [3] addresses T2, Tyrosinase (Agaricus bisporus, UniProt O42713).
T2 sequence (O42713 whole entry): T1 sequence (whole entry)
The experiment can be described thus: Inhibition of monophenolase activity of mushroom tyrosinase assessed as reduction in dopachrome formation using L-Tyrosine substrate by UV-Vis spectrophotometry.

The target of experiment [4] is T2, Tyrosinase. The experiment in a line: Inhibition of diphenolase activity of mushroom tyrosinase assessed as reduction in dopachrome formation using L-DOPA substrate by UV-Vis spectrophotometry.
Experiment [5] concerns the target T1, Tyrosinase (Agaricus bisporus). The source holds these as a separate data set.
Description: Inhibition of diphenolase activity of mushroom tyrosinase assessed as inhibition constant for enzyme-substrate-inhibitor complex by measuring reduction in dopachrome formation using L-DOPA substrate by UV-Vis spectrophotometry
Experiment [6] concerns the target T2, Tyrosinase.
Description: Inhibition of diphenolase activity of mushroom tyrosinase assessed as inhibition constant for free enzyme-inhibitor complex by measuring reduction in dopachrome formation using L-DOPA substrate by UV-Vis spectrophotometry
The target of experiment [7] is T1, Tyrosinase (Agaricus bisporus). The experiment in a line: Binding affinity to mushroom tyrosinase assessed as binding constant by fluorescence spectrophotometry.
For experiment [8] the target is unchanged. The experiment in a line: Inhibition of monophenolase activity of mushroom tyrosinase assessed as increase in lag period of monophenolase for oxidation of L-tyrosine substrate at 0.5 to 16 uM by UV-Vis spectrophotometry.
The target in experiment [9] is T2, Tyrosinase. The source holds these as a separate data set.
Description: Inhibition of monophenolase activity of mushroom tyrosinase assessed as inhibition constant for free enzyme-inhibitor complex by measuring reduction in dopachrome formation using L-Tyrosine substrate by UV-Vis spectrophotometry
Experiment [10] has as its target T2, Tyrosinase. This is another data set of the same source.
Description: Mixed type inhibition of diphenolase activity of mushroom tyrosinase assessed as reduction in dopachrome formation using L-DOPA substrate by UV-Vis spectrophotometry based Dixon plot analysis
Experiment [11] deals with T1, Tyrosinase (Agaricus bisporus). The experiment in a line: Binding affinity to mushroom tyrosinase assessed as Stern-Volmer quenching constant by fluorescence spectrophotometry.
Experiment [12] has as its target T2, Tyrosinase. The source holds these as a separate data set.
For experiment [13], the target named is T2, Tyrosinase. The source holds these as a separate data set.
Description: Competitive type inhibition of monophenolase activity of mushroom tyrosinase assessed as reduction in dopachrome formation using L-Tyrosine substrate by UV-Vis spectrophotometry based Dixon plot analysis
Experiment [14] deals with T2, Tyrosinase. This is another data set of the same source.
Description: Competitive type inhibition of diphenolase activity of mushroom tyrosinase assessed as reduction in dopachrome formation using L-DOPA substrate by UV-Vis spectrophotometry based Dixon plot analysis
The target in experiment [15] is T1, Tyrosinase (Agaricus bisporus). The experiment can be described thus: Binding affinity to mushroom tyrosinase by fluorescence spectrophotometry.
The target is the same in experiment [16]. The experiment in a line: Inhibition of monophenolase activity of mushroom tyrosinase assessed as lag time period of monophenolase for oxidation of L-tyrosine substrate at 16 uM by UV-Vis spectrophotometry (reference value: […] secs).
Experiment [17] has the same target. The experiment can be described thus: Inhibition of monophenolase activity of mushroom tyrosinase assessed as reduction in N-acetyl-L-dopaquinone formation at 25 uM using N-acetyl-L-tyrosine substrate incubated up to 60 mins by HPLC analysis.

Structures are written as SMILES. Activity calls are given as the source filed them. The rule behind the calls is not given here.

In general, IC50 refers to the concentration that inhibits the measured activity by half. As usually defined, the Ki is the equilibrium dissociation constant of an inhibitor or competing ligand from its target. Low values mean tighter binding, high ones weaker binding. Regarding `COc1cc([C@@H]2Oc3c(O)cc(-c4oc5cc(O)cc(O)c5c(=O)c4O)cc3[C@H]2CO)ccc1O`, the inhibition result in experiment [1] and in experiment [8] was “Dose-dependent effect” in each case. For the same compound, the Kis in [2] came out at 6.4 µM; in [5] it was 146 µM. In addition, the IC50 came to 7.6 µM at Tyrosinase [3] and 35.9 µM on Tyrosinase [4]. Also, the Ki on Tyrosinase [6] was 38.3 µM; on Tyrosinase [9] it was 4.6 µM; on Tyrosinase [10], 36.7 µM; on Tyrosinase [12], 4.7 µM. For the same compound, the KA in [7] amounted to 2.25 ×10⁶ L/mol. In [11], the KSV was 0.0634 ×10⁴ L/mol.

On to `COc1cc([C@H]2Oc3cc(O)cc(O)c3C(=O)[C@@H]2O)ccc1O`, for which the figures for the IC50 on Tyrosinase [3] and at Tyrosinase [4] were 51.2 µM and 150 µM, respectively. Further, the KA in experiment [7] amounted to 0.849 ×10⁶ L/mol. Further, the Ki at Tyrosinase [13] stood at 20.5 µM; on Tyrosinase [14] it was 73.4 µM. In experiment [11], the KSV worked out at 0.0222 ×10⁴ L/mol.

For the compound `O=C1c2c(O)cc(O)cc2O[C@H](c2ccc(O)c(O)c2)[C@H]1O`, the KA in experiment [7] came out at 0.918 ×10⁶ L/mol. Further, the KSV in experiment [11] is 0.0492 ×10⁴ L/mol.

For the compound `COc1cc(C2Oc3cc([C@H]4Oc5cc(O)cc(O)c5C(=O)[C@@H]4O)ccc3OC2CO)ccc1O` (mixture of isomers) [SILIBININ], the inhibition result in [1] and in experiment [8] was “Dose-dependent effect” throughout. In addition, the Kis in [2] came to 3.7 µM; in [5], 27.6 µM. Besides, the results for the IC50 at Tyrosinase [3] and on Tyrosinase [4] were 1.7 µM and 12.1 µM, respectively. In addition, the Ki at Tyrosinase [6] turned out to be 8.4 µM; on Tyrosinase [9], 0.7 µM; at Tyrosinase [10], 8.5 µM; at Tyrosinase [12] it was 0.7 µM. In addition, the KA in experiment [7] stood at 6.16 ×10⁶ L/mol. In [11], the KSV was found to be 0.261 ×10⁴ L/mol.

As for `O=C1c2c(O)cc(O)cc2O[C@H](c2ccc(O)cc2)[C@H]1O` [DIHYDROKAEMPFEROL], the IC50 is 73.6 µM on Tyrosinase [3] and more than 200 µM at Tyrosinase [4]. Besides, the KA in experiment [7] was 0.094 ×10⁶ L/mol. Besides, affinity at Tyrosinase [13] was put at a Ki of 42 µM. In [11], the KSV amounted to 0.0199 ×10⁴ L/mol. The Activity entry in experiment [15] was “Dose-dependent effect”.

For `COc1cc([C@H]2Oc3ccc([C@H]4Oc5cc(O)cc(O)c5C(=O)[C@@H]4O)cc3O[C@@H]2CO)ccc1O` [ISOSILYBIN A], the TIME in [16] came to 0.0833 h. Also, the inhibition entry in experiment [1] and in experiment [8] was “Dose-dependent effect” in each case. The Kis in [2] was determined as 3.2 µM; in experiment [5] it was 29.5 µM. Moreover, the results for the IC50 on Tyrosinase [3] and on Tyrosinase [4] were 2.1 µM and 16.7 µM, respectively. Further, the Ki at Tyrosinase [6] is 12.3 µM; at Tyrosinase [9], 1.1 µM; at Tyrosinase [10], 12.4 µM; at Tyrosinase [12], 1.1 µM. For the same compound, the KA in experiment [7] is 6.31 ×10⁶ L/mol. Also, the inhibition entry in experiment [17] was “Active”. Further, the KSV in experiment [11] came out at 0.267 ×10⁴ L/mol. Also, in experiment [15], the Activity result was “Dose-dependent effect”.

Take `COc1cc([C@@H]2Oc3ccc([C@H]4Oc5cc(O)cc(O)c5C(=O)[C@@H]4O)cc3O[C@H]2CO)ccc1O` [ISOSILYBIN B]: the inhibition entry in experiment [1] and in [8] was “Dose-dependent effect” each time. The Kis was 8 µM in [2] and 25.2 µM in [5]. Besides, the IC50 on Tyrosinase [3] came to 4.9 µM; at Tyrosinase [4] it was 19.8 µM. The Ki at Tyrosinase [6] worked out at 12.7 µM; at Tyrosinase [9], 4.3 µM; on Tyrosinase [10], 11.6 µM; on Tyrosinase [12], 4.2 µM. Further, the KA in experiment [7] turned out to be 2.42 ×10⁶ L/mol. Also, the KSV in experiment [11] came to 0.0882 ×10⁴ L/mol.

On to `COc1cc([C@@H]2Oc3c(O)cc([C@H]4Oc5cc(O)cc(O)c5C(=O)[C@@H]4O)cc3[C@H]2CO)ccc1O` [SILICRISTIN A], for which the inhibition entry in [1] and in [8] was “Dose-dependent effect” each time. The Kis in [2] was 2.9 µM; in experiment [5], 37.3 µM. The IC50 at Tyrosinase [3] amounted to 3.2 µM; on Tyrosinase [4], 28.8 µM. Also, the Ki was 15.2 µM on Tyrosinase [6], 2.1 µM on Tyrosinase [9], 15.4 µM at Tyrosinase [10] and 2.1 µM at Tyrosinase [12]. Also, the KA in experiment [7] stood at 3.55 ×10⁶ L/mol. Moreover, the KSV in experiment [11] stood at 0.192 ×10⁴ L/mol.

As for `COc1cc([C@H]2Oc3c(O)cc([C@H]4Oc5cc(O)cc(O)c5C(=O)[C@@H]4O)cc3[C@@H]2CO)ccc1O` [SILICRISTIN B], the inhibition result in [1] and in experiment [8] was “Dose-dependent effect” in each case. Also, the Kis was 14 µM in [2] and 91.3 µM in experiment [5]. The figures for the IC50 on Tyrosinase [3] and at Tyrosinase [4] were 4.5 µM and 44.9 µM, respectively. Besides, the Ki on Tyrosinase [6] came to 34.7 µM; on Tyrosinase [9], 2.8 µM; on Tyrosinase [10] it was 35.5 µM; on Tyrosinase [12] it was 2.8 µM. Besides, in experiment [7], the KA was 2.88 ×10⁶ L/mol. Also, the KSV in experiment [11] turned out to be 0.109 ×10⁴ L/mol.

As for `COc1cc([C@@H]2[C@H]3CO[C@@]4(O)C(=O)[C@@H]2C=C([C@H]2Oc5cc(O)cc(O)c5C(=O)[C@@H]2O)[C@@H]34)ccc1O` [SILIDIANIN], the inhibition entry in experiment [1] and in [8] was “Dose-dependent effect” each time. Besides, the values for the Kis in [2] and in experiment [5] were 2.3 µM and 90.8 µM, respectively. Besides, the IC50 at Tyrosinase [3] came to 2.6 µM; at Tyrosinase [4], 16.5 µM. Also, the Ki at Tyrosinase [6] worked out at 15 µM; at Tyrosinase [9], 2.1 µM; at Tyrosinase [10] it was 14.9 µM; on Tyrosinase [12], 1.7 µM. In addition, the KA in experiment [7] came to 5.81 ×10⁶ L/mol. The KSV in experiment [11] is 0.193 ×10⁴ L/mol.
